# Test results published in PubChem BioAssay (NCI).
# Where “and” joins values, the source holds several entries; their conditions need not be identical. Identical values can stand only once.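 Cells were grown in 96-well plates and exposed to each compound for 48 hours at five concentrations; endpoints were interpolated linearly between bracketing concentrations, or set to the highest concentration if not reached. Abbreviation: GI50, concentration required for 50% inhibition of growth. TGI: concentration producing complete growth inhibition.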
# How the values were obtained:
# Assay in all cases: DTP human tumour cell line panel, 48 h
# [1] = tested on: HCT-116 colon
# [2] = tested on: IGROV1 ovarian
# [3] = tested on: NCI-H226 lung
# [4] = tested on: MOLT-4 leukemia
# [5] = tested on: NCI-H522 lung
# [6] = tested on: EKVX NSCLC
# [7] = tested on: SNB-75 CNS
# [8] = tested on: SF-268 CNS
# [9] = tested on: MCF7 breast
# [10] = tested on: T-47D breast
Compound,TGI [1],TGI [2],TGI [3],TGI [4],TGI [5],TGI [6],TGI [7],TGI [8],GI50 [2],GI50 [3],GI50 [4],GI50 [9] [µM],TGI [9] [µM],GI50 [7],GI50 [8],TGI [10] [µM],GI50 [1],GI50 [5],GI50 [6],GI50 [10] [µM]
Cc1csc(CCC(N)C(=O)O)n1 (stereo not drawn),> 100 µM,> 100 µM,> 100 µM,> 100 µM,> 100 µM,> 100 µM,> 100 µM,,,,,,,,,,,,,
CC(=O)c1c(O)c2c([nH]c1=O)CCCC2,,> 100 µM,,> 100 µM,,> 100 µM,29 µM,> 100 µM,,,,,,,,,,,,
O=C(Nc1ccc(Br)cc1)Nc1cccc(Br)c1,,> 100 µM,> 100 µM,> 100 µM,,,63 µM,> 100 µM,5.82 µM,47.1 µM,5.38 µM,3.2,> 100,10.2 µM,> 100 µM,,,,,
O=C(Nc1ccc(Cl)c(Cl)c1)C1C(=O)N(c2ccc(Cl)c(Cl)c2)C(=O)/C1=N\O (stereo not drawn),> 100 µM,> 100 µM,> 100 µM,> 100 µM,> 100 µM,> 100 µM,> 100 µM,> 100 µM,,,,,,,,,,,,
O=C(O)Cn1ccc(=O)c2c([N+](=O)[O-])cccc21,> 100 µM,> 100 µM,> 100 µM,> 100 µM,> 100 µM,,> 100 µM,> 100 µM,,,,,> 100,,,> 100,,,,
c1ccc2c(c1)[O][Sn][O]2,> 150 µg/mL,> 150 µg/mL,> 150 µg/mL,> 150 µg/mL,8.78 µg/mL,> 150 µg/mL,> 150 µg/mL,> 150 µg/mL,24.3 µg/mL,69.5 µg/mL,7.16 µg/mL,,,100 µg/mL,25.1 µg/mL,,19.8 µg/mL,2.03 µg/mL,> 150 µg/mL,
Cc1ccc(C(=O)N2C/C(=C/c3ccccc3)C(=O)/C(=C/c3ccccc3)C2)cc1,0.548 µM,> 100 µM,> 100 µM,> 100 µM,> 56 µM,,16.4 µM,> 100 µM,12.8 µM,,4.98 µM,0.387,> 41.9,2.58 µM,10.8 µM,> 100,0.226 µM,11.6 µM,,15.6
CC1CCC2c3c([nH]c4ccccc34)C3C(=O)N(c4ccccc4)C(=O)C3C2C1 (stereo not drawn),> 250 µM,57 µM and 130 µM,96.4 µM and 161 µM,95.5 µM and 99.1 µM,> 250 µM,> 250 µM,,97.9 µM and > 250 µM,38.2 µM,62.3 µM,44.7 µM,,,12.1 µM,165 µM,,,,,
CCOc1ccc(/C=C2/C(=O)N=C(N)N=C2N)cc1OCC,> 100 µM,> 100 µM,> 100 µM,> 100 µM,> 100 µM,> 100 µM,> 100 µM,,,,,,,,,,,,,
CN(C)CCNC(=O)c1cccc2cc3ccc4ccccc4c3nc12,1.05 µM,1.05 µM,0.488 µM,0.0678 µM,0.28 µM,0.495 µM,0.399 µM,1.2 µM,,,,,,,,,,,,
O=C1c2ccccc2-c2c1c1ccc([N+](=O)[O-])cc1c(=O)n2CCCCl,> 100 µM,> 100 µM,,> 100 µM,> 100 µM,> 100 µM,,> 100 µM,> 100 µM,,2.1 µM,1.12,> 100,,23.5 µM,,3.62 µM,86.8 µM,> 100 µM,
CC1(C)N=C(N)N=C(N)N1c1ccc(OCCCCNC(=O)Nc2cccc(S(=O)(=O)F)c2)c(Cl)c1,> 100 µM,> 100 µM,> 100 µM,> 100 µM,69.7 µM,,48.7 µM,> 100 µM,0.581 µM,7.95 µM,4.08 µM,2.09,> 100,2.98 µM,0.649 µM,> 100,0.594 µM,1.83 µM,,15.8
Nc1c(C(=O)Nc2ccccc2O)[n+]([O-])c2ccccc2[n+]1[O-],> 100 µM,> 100 µM,> 100 µM,> 100 µM,> 100 µM,> 100 µM,> 100 µM,,,,,,,,,,,,,
CN1CCOCCOCCOc2ccccc2NC(=O)c2nc(cnc2N)-c2ccc(cc2)S1(=O)=O,,> 100 µM,> 100 µM,,> 100 µM,> 100 µM,17.7 µM,> 100 µM,0.0719 µM,59.9 µM,,0.0397,> 100,2.85 µM,11.1 µM,> 100,,5.55 µM,60.2 µM,> 100
CCOC(=O)C1=CSC2=NC3=C(CCC/C3=C\c3cc(OC)c(OC)c(OC)c3)C(c3cc(OC)c(OC)c(OC)c3)N12 (stereo not drawn),,,> 100 µM,,,> 100 µM,> 100 µM,,,2.4 µM,,2.66,> 100,3.74 µM,,> 100,,,> 100 µM,3.83
Cn1cc(NC(=O)c2cc(NC(=O)CCCCCCCC(=O)Nc3cc(C(=O)Nc4cc(C(=O)NCCC(=N)N)n(C)c4)n(C)c3)cn2C)cc1C(=O)NCCC(=N)N,42.3 µM,25.3 µM,,66.7 µM,,68.2 µM,70.8 µM,45.9 µM,,,,,,,,,,,,
O=C(Nc1nc2c(s1)CCc1c-2c(Br)n(Cc2ccccc2)c1Br)c1ccccc1,> 100 µM,33.4 µM,9.16 µM,64.4 µM,32.5 µM,,4.74 µM,> 100 µM,2.68 µM,1.87 µM,22.7 µM,5.38,> 100,1.77 µM,6.03 µM,19.7,3.98 µM,4.41 µM,,1.4
O=c1[nH]c(=O)n(C2CC(O)C(O)C(CO)O2)cc1F (stereo not drawn),> 100 µM,> 100 µM,> 100 µM,> 100 µM,> 100 µM,> 100 µM,> 100 µM,> 100 µM,,,,,,,,,,,,
